Patent US20100260825A1, “Antifolates for the treatment of cardiovascular, inflammatory, neoplastic, autoimmune and related diseases in sublingual dosage units, film strips, or skin patches” (priority 2009, published 2010)

Assays:
[1] = Hypothetical ADMEP and Phase-I-II study of compound 1 (Example-3); format: in vivo, humans; details: 1.5 mg from the gut to the plasma three times a day (4.5 mg/24 hours)
Description: Based on ADMEP (Absorption, Distribution, Metabolism, Excretion, Pharmacokinetics) studies conducted with analogous compound 1 in animals and humans during pre-clinical investigations and Phase-I-II clinical trials it was determined that an absorption of 1.0 mg of the drug from the gut to plasma three times a day from divided oral dosage units is optimal (3.0 mg/24 hours) in treating the antifolate responsive disease without causing significant toxicity. […] The bioavailability of this drug from the oral dosage unit used was only 10 percent as determined from a Phase-I clinical trial in healthy volunteers. […] The Bioavailability of this new medication was pH dependent due to solubility reasons and therefore it was possible that fluctuations in bioavailability might occur in certain patients as described in example-2. Thus in certain patients taking antacids or drugs such as certain prostaglandin to reduce acid secretion or other unknown factors the pH of the gut might increase to enhance the solubility and thereby increasing the bio-availability to the 15 to 20% range.

[2] = test system: RPMI 8226; test: Growth inhibition of human tumor cells in culture, RPMI 8226 (Leukemia); format: cell-based
Text: (§1) The preceding data summarize the ability of compound 2 to inhibit 50% of the growth of selected tumor cells in culture. The values are expressed as Log10 GI50 values all of which are lower than 10^−8 M. In the same table a comparison is made of the respective values of TGI (Total Growth Inhibition) for 2 and methotrexate.

[3] = test system: Human HCT-8 Colon Xenograft; test: Antitumor activity in nude mice bearing human HCT-8 colon xenograft; format: in vivo; details: i.v. push daily × 5
[4] = Toxicity (maximum tolerated dose), i.v. push daily × 5 in nude mice; format: in vivo; details: i.v. push daily × 5, nude mice bearing HCT-8 xenograft
[5] = test system: SF 539; test: Growth inhibition of human tumor cells in culture, SF 539 (CNS Cancer); format: cell-based
[6] = test system: selected tumor cells in culture; test: Growth inhibition of selected tumor cells in culture (summary); format: cell-based, Human; details: all selected tumor cell lines of the table; read-out: GI50 (inhibit 50% of the growth)
Text: as §1

[7] = test system: MCF7-ADR-RES; test: Growth inhibition of human tumor cells in culture, MCF7-ADR-RES (Breast Cancer); format: cell-based
Text: as §1

[8] = test system: CCRF-CEM; test: Growth inhibition of human tumor cells in culture, CCRF-CEM (Leukemia); format: cell-based
Text: as §1

[9] = test system: patients with rheumatoid arthritis; test: Clinical trial of M-Trex (Mobiletrex) in patients with rheumatoid arthritis, relative to methotrexate; format: in vivo, human; set-up: CRP: unit not given here; details: for CRP: plasma C-Reactive Protein
Text: In 2002; Castaneda and M. Gopal Nair conducted the clinical trial of a metabolism-blocked antifolate Mobileterx in patients with rheumatoid arthritis to evaluate its efficacy relative to the well-known antifolate drug methotrexate. In this pilot study [O. Castaneda and M. Gopal Nair. [The J. Rheumatology.

[10] = test system: MCF-7; test: Growth inhibition of human tumor cells in culture, MCF-7 (Breast Cancer); format: cell-based
Text: as §1

[11] = test system: K562; test: Growth inhibition of human tumor cells in culture, K562 (Leukemia); format: cell-based
Text: as §1

[12] = test system: MOLT-4; test: Growth inhibition of human tumor cells in culture, MOLT-4 (Leukemia); format: cell-based
Text: as §1

[13] = test system: SR; test: Growth inhibition of human tumor cells in culture, SR (Leukemia); format: cell-based
Text: as §1

[14] = cited from earlier work
[15] = oral dosage form; cited from earlier work
[16] = cited from earlier work; remark: listed apart in the source
[17] = test system: patients with rheumatoid arthritis; test: Conventional therapy of rheumatoid arthritis with methotrexate in patients; format: in vivo, human
[18] = Bioavailability / absorption of oral methotrexate in patients; format: in vivo, human; details: oral dosage form, group of arthritic patients (Example-2)
[19] = test system: aldehyde oxidase; details: cited from earlier work

**Q.** Which toxicity [1] does the source give for `C=C(CC(NC(=O)c1ccc(CCc2ccc3nc(N)nc(N)c3c2)cc1)C(=O)O)C(=O)O` (stereo not shown) [Compound 1, 4′-Methylene-5,8,10-trideazaaminopterin] here?
**A.** unacceptable GI and bone marrow toxicity

**Q.** With `C=C(CC(NC(=O)c1ccc(CCc2ccc3nc(N)nc(N)c3c2)cc1)C(=O)O)C(=O)O` (stereo not shown) [Compound 2] as the molecule, how does the “TGI (Total Growth Inhibition)” value [2] read?
**A.** −7.44

**Q.** And the “Log10 GI50” value ([2]; Log10 of molar concentration)?
**A.** <−8.00

**Q.** What about the “MTGI (%) Maximum Tumor Growth Inhibition (% of control)” value ([3]; 4.0 mg/kg/day (MTD)) of the same molecule?
**A.** 91.4 ± 2.2%

**Q.** What about the T/C % ([3]; 4.0 mg/kg/day (MTD)) of the same molecule?
**A.** 623.08%

**Q.** What about the “TD (days) Tumor Doubling Time” value ([3]; 4.0 mg/kg/day (MTD)) of the same molecule?
**A.** 16.2 ± 3.2 days

**Q.** What about the “Maximum Tolerated dose” value [4] of the same molecule?
**A.** M-Trex (4.0 mg/kg/day)

**Q.** And the “TGI (Total Growth Inhibition)” value [5]?
**A.** −6.3

**Q.** And the “Log10 GI50” value ([5]; Log10 of molar concentration)?
**A.** <−8.00

**Q.** And the GI50 [6]?
**A.** < 10 nM

**Q.** What about the “TGI (Total Growth Inhibition)” value [7] of the same molecule?
**A.** −7.26

**Q.** What about the “Log10 GI50” value ([7]; Log10 of molar concentration) of the same molecule?
**A.** <−8.00

**Q.** And the “TGI (Total Growth Inhibition)” value [8]?
**A.** <−8.00

**Q.** What about the “Log10 GI50” value ([8]; Log10 of molar concentration) of the same molecule?
**A.** <−8.00

**Q.** And the ESR ([9]; 4 wks)?
**A.** 52.7

**Q.** And the HAQ ([9]; 4 wks)?
**A.** 1.8

**Q.** And the “Pa. GA” value ([9]; 4 wks)?
**A.** 6.0

**Q.** What about the “Ph. GA” value ([9]; 4 wks) of the same molecule?
**A.** 6.2

**Q.** And the “S. Joints” value ([9]; 4 wks)?
**A.** 5.6

**Q.** What about the “T. Joints” value ([9]; 4 wks) of the same molecule?
**A.** 10.2

**Q.** What about the Pain ([9]; 4 wks of treatment, rheumatoid arthritis patients) of the same molecule?
**A.** 4.1

**Q.** And the CRP ([9]; 4 wks)?
**A.** 22.1

**Q.** And the ESR ([9]; 8 wks)?
**A.** 32.7

**Q.** And the HAQ ([9]; 8 wks)?
**A.** 1.6

**Q.** And the “Pa. GA” value ([9]; 8 wks)?
**A.** 6.0

**Q.** And the Pain ([9]; 8 wks)?
**A.** 2.8

**Q.** What about the “Ph. GA” value ([9]; 8 wks) of the same molecule?
**A.** 5.0

**Q.** And the “S. Joints” value ([9]; 8 wks)?
**A.** 3.5

**Q.** And the “T. Joints” value ([9]; 8 wks)?
**A.** 7.3

**Q.** And the CRP ([9]; 8 wks)?
**A.** 20.7

**Q.** And the ESR ([9]; 12 wks)?
**A.** 38.3

**Q.** And the HAQ ([9]; 12 wks)?
**A.** 1.4

**Q.** What about the “Pa. GA” value ([9]; 12 wks) of the same molecule?
**A.** 5.0

**Q.** What about the Pain ([9]; 12 wks) of the same molecule?
**A.** 2.2

**Q.** And the “Ph. GA” value ([9]; 12 wks)?
**A.** 4.5

**Q.** What about the “S. Joints” value ([9]; 12 wks) of the same molecule?
**A.** 3.0

**Q.** And the “T. Joints” value ([9]; 12 wks)?
**A.** 5.8

**Q.** And the CRP ([9]; 12 wks)?
**A.** 17.7

**Q.** And the ESR ([9]; 16 wks)?
**A.** 38.6

**Q.** What about the HAQ ([9]; 16 wks) of the same molecule?
**A.** 1.4

**Q.** What about the “Pa. GA” value ([9]; 16 wks) of the same molecule?
**A.** 3.0

**Q.** What about the Pain ([9]; 16 wks) of the same molecule?
**A.** 1.8

**Q.** What about the “Ph. GA” value ([9]; 16 wks) of the same molecule?
**A.** 3.0

**Q.** And the “S. Joints” value ([9]; 16 wks)?
**A.** 2.9

**Q.** And the “T. Joints” value ([9]; 16 wks)?
**A.** 5.8

**Q.** What about the CRP ([9]; 16 wks) of the same molecule?
**A.** 13.6

**Q.** What about the “plasma concentration of C-Reactive Protein (CRP)” value ([9]; as the treatment progressed) of the same molecule?
**A.** consistently decreased

**Q.** What about the “TGI (Total Growth Inhibition)” value [10] of the same molecule?
**A.** −6.32

**Q.** What about the “Log10 GI50” value ([10]; Log10 of molar concentration) of the same molecule?
**A.** <−8.00

**Q.** What about the “TGI (Total Growth Inhibition)” value [11] of the same molecule?
**A.** <−8.00

**Q.** And the “Log10 GI50” value ([11]; Log10 of molar concentration)?
**A.** <−8.00

**Q.** What about the “TGI (Total Growth Inhibition)” value [12] of the same molecule?
**A.** −7.40

**Q.** What about the “Log10 GI50” value ([12]; Log10 of molar concentration) of the same molecule?
**A.** <−8.00

**Q.** What about the “TGI (Total Growth Inhibition)” value [13] of the same molecule?
**A.** <−8.00

**Q.** And the “Log10 GI50” value ([13]; Log10 of molar concentration)?
**A.** <−8.00

**Q.** With `CN(Cc1cnc2nc(N)nc(N)c2n1)c1ccc(C(=O)N[C@@H](CCC(=O)O)C(=O)O)cc1` [Methotrexate, reference compound] as the molecule, how does the solubility [14] read?
**A.** pH dependent

**Q.** What about the “TGI (Total Growth Inhibition)” value [2] of the same molecule?
**A.** −3.66

**Q.** What about the “MTGI (%) Maximum Tumor Growth Inhibition (% of control)” value ([3]; 1.0 mg/kg/day (MTD)) of the same molecule?
**A.** 30.0 ± 9.0%

**Q.** What about the T/C % ([3]; 1.0 mg/kg/day (MTD)) of the same molecule?
**A.** 176.92%

**Q.** What about the “TD (days) Tumor Doubling Time” value ([3]; 1.0 mg/kg/day (MTD)) of the same molecule?
**A.** 4.6 ± 0.6 days

**Q.** What about the bioavailability [15] of the same molecule?
**A.** 20-80%

**Q.** And the MTD at 5 days ([4]; mouse, in vivo, iv)?
**A.** 1 mg/kg/day

**Q.** What about the “TGI (Total Growth Inhibition)” value [5] of the same molecule?
**A.** −3.66

**Q.** What about the “adverse effects of overdose” value ([16]; 60 mg weekly instead of 15 mg weekly, oral tablets, rheumatoid arthritis patient) of the same molecule?
**A.** odynophagia, dysphagia and oesophagitis

**Q.** What about the “adverse effects of dosing error” value ([16]; weekly dose taken in error daily or on several days each week) of the same molecule?
**A.** severe unwanted effects, including neutropenia, hepatotoxicity and bone marrow suppression

**Q.** What about the “TGI (Total Growth Inhibition)” value [8] of the same molecule?
**A.** −3.77

**Q.** And the non-responders ([17]; certain patient populations)?
**A.** up to 40%

**Q.** And the drug related toxicity ([17]; some patients)?
**A.** significant drug related toxicity including elevation of liver enzymes

**Q.** What about the absorption [18] of the same molecule?
**A.** 20%

**Q.** And the “TGI (Total Growth Inhibition)” value [11]?
**A.** −3.30

**Q.** What about the “aldehyde oxidase mediated oxidative deactivation” value [19] of the same molecule?
**A.** efficiently converted to its corresponding 7-hydroxymethotrexate

**Q.** And the “TGI (Total Growth Inhibition)” value [12]?
**A.** −3.55

**Q.** What about the “TGI (Total Growth Inhibition)” value [13] of the same molecule?
**A.** −3.50
